Data published in US20250345370A1, “MICROBIAL LIBERATION OF N-METHYLSEROTONIN FROM ORANGE FIBER” (Washington University, priority 2022, published 2025).
Where two headings read alike, the source gives them in different places.

Assays:
[1] = N-methylserotonin in drinking water of germ-free mice: body weight, epididymal fat, intake, survival; assay type: in vivo, germ-free C57BL/6J mice; details: for epididymal fat mass: vs untreated controls
Protocol: For experiments involving administration of N-methylserotonin to germ-free mice, a stock solution of the compound (100 mg/mL, Santa Cruz Biotechnologies) was prepared in sterile water and filter sterilized ([…]; Nalgene). The outer surface of tubes containing the stock solution was sterilized with Clidox (Pharmacal) and the tubes were introduced into gnotobiotic isolators using standard procedures. The stock solution was then diluted in darkened glass water bottles (Ancare) in order to administer doses of 1 mg/kg/day or 50 mg/kg/day (based on an experimentally determined average consumption of 5 mL of water/day/mouse). Every four days, bottles were replaced with new ones containing fresh N-methylserotonin. Each of the three arms of the experiment, including the control arm where unsupplemented drinking water was administered, consisted of 5 mice.
Fecal samples and body weights were collected weekly, while food and water intake were monitored daily by comparing pellet mass in the food hopper and the volume of water in water bottles at the beginning and end of a 24 h period and dividing these values by the number of mice per cage. All animals were euthanized between 0830 h and 0930 h without prior fasting. Luminal contents from the proximal and distal halves of the small intestine, the cecum and the colon, host tissues (liver, epididymal fat pads, gastrocnemius muscle, the distal quarter of the small intestine (ileum), cecum and entire colon) plus serum were collected, flash frozen in liquid nitrogen and stored at −80° C. prior to analyses.
Host effects of N-methylserotonin. To characterize the effects of N-methylserotonin on host physiology and metabolism, 12-week-old germ-free C57BL/6J mice were fed the unsupplemented HiSF-LoFV diet and administered N-methylserotonin via their drinking water at doses of 1 mg/kg/day or 50 mg/kg/day for 21 days (FIG. 2A). The 1 mg/kg/day dose was experimentally determined to result in fecal N-methylserotonin levels that were equivalent to those documented in mice colonized with the 14-member community consuming the orange fiber-supplemented HiSF-LoFV diet (133.5±15 ng/g versus 131±19 ng/g feces, respectively; p=0.92, unpaired t-test). The 50 mg/kg/d dose was equivalent to the estimated total amount of N-methylserotonin consumed each day in the 10% orange fiber-containing diet (based on the yield obtained after in vitro enzymatic digestion of the fiber with T. reesei cellulase).

[2] = methanol, 50 mg orange fiber
5-Htr7 = 5-Htr7 (Homo sapiens, UniProt P34969); details: in vitro studies; cited from earlier work
[3] = Human studies with pea and orange fiber snack prototypes: fecal N-methylserotonin and serotonin levels; assay type: in vivo
Protocol: Human studies with pea and orange fiber snack prototypes. Two separate open-label, single group assignment studies were performed involving members of the Missouri Adolescent Female Twin Study (MOAFTS) cohort who were age 31-45 years at the time of enrollment. The first study with the pea fiber snack was performed between April and August 2017, while the second study with the orange fiber snack was conducted between August and December 2017. All participants provided written informed consent and the studies were approved by the Washington University Institutional Review Board (IRB ID #201611122). (ClinicalTrials.gov NCT03078283).
The design of the two studies were identical except for the fiber snack supplement used and the number of participants in each study. Individuals who were pregnant or trying to get pregnant, had inflammatory bowel disease, gastrointestinal cancer, hepatitis, HIV, renal failure, or allergies to dairy, eggs, fish, crustacean shellfish, tree nuts, sesame seeds, peanuts, wheat, gluten, soybeans, celery, or mustard were excluded from the study. In Study 1, four twin pairs were concordant for obesity (BMI>30 kg/m2) while five pairs were discordant with one member being obese and the other non-obese (n=18 participants, […] (mean±SD); Table S8B). Study 2 involved 24 participants: 12 dizygotic twin pairs [37±2.9 years (mean±SD)], nine of whom had participated in the pea fiber study; for these nine pairs, the interval between cessation of pea fiber snack consumption and initiation of orange fiber consumption ranged from 50 to 106 days [84+26 days (mean±SD)]. Participants consumed their normal, unrestricted diet for the first two weeks of the study (pre-intervention phase). At the beginning of week three, they supplemented their diets with one 35 g fiber snack serving a day for one week, then two 35 g snack servings a day the following week, and thereafter, three 35 g snacks per day for four weeks (weeks 5-8) at breakfast, lunch and dinner. No attempt was made to adjust the diets of participants other than supplementation with the fiber snack. Snack prototypes were manufactured by Mondeldz International, Inc. (see Table S8A for their composition), which participants received in weekly shipments from the study center. The pea fiber snacks were in the form of rotary biscuits (6.7 g total fiber/35 g snack) or extruded bars (8.1 g fiber/35 g snack) with participants having the option to alternate between them. The orange fiber snacks were all in the form of extruded bars (10.2 g total fiber/35 g snack). Compliance was monitored throughout by the study coordinator through weekly phone calls. The primary outcomes for each study were the effects of the respective prototypes on gut microbial community structure and function.
Fecal samples were collected by participants in small medically approved collection containers. Each fecal sample was frozen immediately at −20° C. and temporarily stored in dedicated freezers provided to participants at the beginning of the study. Within 12-48 hours after collection, all samples were shipped, via overnight delivery, in an insulated container containing frozen gel packs, to a biospecimen repository located in Washington University in St. Louis and overseen by one of the authors (A.C.H.). Once received, samples were stored at −80° C. until processing for LC-QqQ-MS analysis of N-methylserotonin levels and culture-independent characterization of ASV and CAZyme gene abundances.
Measurement of fecal N-methylserotonin levels—Each fecal sample was homogenized with a porcelain mortar (4 L) and pestle while submerged in liquid nitrogen; multiple 500 mg aliquots of the pulverized frozen material were stored at −80° C. N-methylserotonin was quantified using the same protocol that was employed for mouse fecal samples (as described herein elsewhere).
N-methylserotonin levels and microbiome CAZyme gene abundances in humans consuming fiber snack prototypes. […]

Chain of 5-Htr7 (P34969 whole entry): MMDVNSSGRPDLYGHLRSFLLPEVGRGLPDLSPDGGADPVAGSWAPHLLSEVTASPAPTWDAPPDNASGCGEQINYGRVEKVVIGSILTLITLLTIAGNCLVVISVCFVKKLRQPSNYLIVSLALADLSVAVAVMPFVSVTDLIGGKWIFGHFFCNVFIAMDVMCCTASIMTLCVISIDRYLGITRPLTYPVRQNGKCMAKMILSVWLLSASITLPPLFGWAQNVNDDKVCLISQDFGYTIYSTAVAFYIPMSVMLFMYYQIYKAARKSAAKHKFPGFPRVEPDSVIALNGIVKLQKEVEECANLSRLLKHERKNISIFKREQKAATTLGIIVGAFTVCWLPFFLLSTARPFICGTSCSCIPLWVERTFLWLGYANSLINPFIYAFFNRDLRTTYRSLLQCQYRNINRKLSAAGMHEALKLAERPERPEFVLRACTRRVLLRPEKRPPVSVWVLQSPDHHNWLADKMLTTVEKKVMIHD

For `CNCCc1c[nH]c2ccc(O)cc12` [N-methylserotonin], the epididymal fat mass ([1]; 1 mg/kg/day (lower dose)) was “not the lower dose”, the epididymal fat mass ([1]; 50 mg/kg/day (higher dose)) was “statistically significant reduction” and the mortality ([1]; 50 mg/kg/day group, 5 mice) was “one animal died within the first week”. For the same molecule, the weight gain ([1]; drinking water, 21 days, vs untreated) was “statistically significant decrease in weight gain”, the “food and water intake” value ([1]; measured daily, all three groups) was “remained consistent” and the “N-methylserotonin released after two rounds of extraction” value [2] was 31 ng. For the same molecule, the “N-methylserotonin released in total after 15 rounds” value [2] was 171 ng, the N-methylserotonin recovered ([2]; Extraction 1) was 16 ng and the N-methylserotonin recovered ([2]; Extraction 2) was 15 ng. For the same molecule, the N-methylserotonin recovered ([2]; Extraction 3) was 16 ng, the N-methylserotonin recovered ([2]; Extraction 4) was 15 ng and the N-methylserotonin recovered ([2]; Extraction 5) was 14 ng. It also gave a N-methylserotonin recovered ([2]; Extraction 6) of 13 ng, a N-methylserotonin recovered ([2]; Extraction 7) of 12 ng and a N-methylserotonin recovered ([2]; Extraction 8) of 10 ng. The N-methylserotonin recovered ([2]; Extraction 9) was 11 ng, the N-methylserotonin recovered ([2]; Extraction 10) was 10 ng and the N-methylserotonin recovered ([2]; Extraction 11) was 9 ng. For the same molecule, the N-methylserotonin recovered ([2]; Extraction 12) was 9 ng, the N-methylserotonin recovered ([2]; Extraction 13) was 8 ng and the N-methylserotonin recovered ([2]; Extraction 14) was 7 ng. The N-methylserotonin recovered ([2]; Extraction 15) was 6 ng, the binding (5-Htr7) was “binds” and the “fecal samples in which N-methylserotonin was undetectable” value ([3]; 36 samples, pea fiber snack prototype, weeks 3 and 5) was 87%. The “fecal samples in which N-methylserotonin was present” value ([3]; 48 samples, participants consuming the orange fiber snack prototype) was 98%, the “fecal N-methylserotonin concentration” value ([3]; orange fiber snacks at maximal dose (3 snacks/day), mean±SD) was 72.5 ± 38.4 µM and the “fecal N-methylserotonin (undetectable)” value ([3]; pea fiber snack prototype, 87% of 36 samples) was < 0.05 µg/g.
